Data on 28 compounds can be found in patent EP2951180B1, “2,6,7,8 SUBSTITUTED PURINES AS HDM2 INHIBITORS” (Merck Sharp & Dohme Corp., priority 2013, dated 2014).

Molecules are shown by their SMILES.

This assay concerns the target T1, HDM2 (Homo sapiens, UniProt Q00987).
T1 construct: Thioredoxin (N); made in house; host or cells: E. coli strain BL21(DE3)Rosetta
Kind of assay: FRET assay (HDM2 inhibition; method not described in this part). Format: binding.

T1 sequence (Q00987 17-125): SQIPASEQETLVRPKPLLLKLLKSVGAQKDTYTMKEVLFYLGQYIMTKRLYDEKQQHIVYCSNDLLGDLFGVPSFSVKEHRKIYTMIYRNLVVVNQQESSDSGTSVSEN

What is called IC50 is the concentration that inhibits the measured activity by half. `COc1ccc(-c2nc3nc(C(=O)O)nc(N[C@H](C)C4CC4)c3n2Cc2ccc(C(F)(F)F)cc2)cc1Cl` [Example 2.66, 8-(3-chloro-4-methoxyphenyl)-6-{[(1R)-1-cyclopropylethyl]amino}-7-[4-(trifluoromethyl)benzyl]-7H-purine-2-carboxylic acid] came in with an IC50 (Table 2) of 112 nM. Where the note is “Table 1”, `C[C@@H](Nc1nc(C(=O)O)nc2nc(-c3cc(OC4CCCCC4)ccn3)n(Cc3ccc(C(F)(F)F)cc3)c12)C1CCC1` [Example 1.58, 6-{[(1R)-1-cyclobutylethyl]amino}-8-[4-(cyclohexyloxy)pyridin-2-yl]-7-[4-(trifluoromethyl)benzyl]-7H-purine-2-carboxylic acid] showed a half-inhibitory concentration (IC50) of 16.9 nM. `Cc1cc(C(C)C)cc(-c2nc3nc(C(=O)O)nc(N[C@H](C)C4CCC4)c3n2Cc2ccc(C(F)(F)F)cc2)n1` [Example 1.93, 6-{[(1R)-1-cyclobutylethyl]amino}-8-[6-methyl-4-(1-methylethyl)pyridin-2-yl]-7-[4-(trifluoromethyl)benzyl]-7H-purine-2-carboxylic acid]: for the setting “Table 1”, the IC50 was determined as 19.1 nM. With `C[C@@H](Nc1nc(C(=O)O)nc2nc(-c3cc(N(C)C)ccc3OC(F)(F)F)n(Cc3ccc(C(F)(F)F)cc3)c12)C1CCC1` [Example 1.1, (R)-6-((1-cyclobutylethyl)amino)-8-(5-(dimethylamino)-2-(trifluoromethoxy)phenyl)-7-(4-(trifluoromethyl)benzyl)-7H-purine-2-carboxylic acid], half-maximal inhibition (Table 1) (IC50) was put at 11.4 nM. In the case of `CC(C)c1ccc(OC(F)(F)F)c(-c2nc3nc(C(=O)O)nc(N[C@H](C)C4CCC4)c3n2Cc2ccc(C(F)(F)F)c(F)c2)c1` [Example 1.3, (R)-6-((1-cyclobutylethyl)amino)-7-(3-fluoro-4-(trifluoromethyl)benzyl)-8-(5-isopropyl-2-(trifluoromethoxy)phenyl)-7H-purine-2-carboxylic acid], where the note is “Table 1”, it took 15.2 nM to reach half-maximal inhibition (IC50). Consider `C[C@@H](Nc1nc(C(=O)O)nc2nc(-c3cc(C(C)(C)C)ccn3)n(Cc3ccc(C(F)(F)F)cc3)c12)C1CCC1` [Example 1.53, 8-(4-tert-butylpyridin-2-yl)-6-{[(1R)-1-cyclobutylethyl]amino}-7-[4-(trifluoromethyl)benzyl]-7H-purine-2-carboxylic acid], for which the 50% inhibitory concentration (IC50) (Table 1) came out at 4.36 nM.

For `Cc1cccc(-c2nc3nc(C(=O)O)nc(N[C@@H](C)C4CC4)c3n2C(C)c2ccc(Cl)cc2)c1` (stereo partly drawn) [Example 5.3, 7-(1-(4-chlorophenyl)ethyl)-6-((S)-1-cyclopropylethylamino)-8-(3-methylphenyl)-7H-purine-2-carboxylic acid], the midpoint of inhibition (Table 5), the IC50, lay at 601 nM. Turning to `Cc1ccc(O)c(-c2nc3nc(C(=O)O)nc(N[C@H](C)C4CC4)c3n2Cc2ccc(Cl)cc2)c1` [Example 4.18, (R)-7-(4-chlorobenzyl)-6-((1-cyclopropylethyl)amino)-8-(2-hydroxy-5-methylphenyl)-7H-purine-2-carboxylic acid], where the note is “Table 4”, inhibition was half-maximal at 347 nM (IC50). The compound `C[C@@H](Nc1nc(C(=O)O)nc2nc(-c3ccc(Br)cc3F)n(Cc3ccc(C(F)(F)F)cc3)c12)C1CC1` [Example 2.75, 8-(4-bromo-2-fluorophenyl)-6-{[(1R)-1-cyclopropylethyl]amino}-7-[4-(trifluoromethyl)benzyl]-7H-purine-2-carboxylic acid] displayed an IC50 (Table 2) of 204 nM. With `CCCc1ccnc(-c2nc3nc(C(=O)O)nc(N[C@H](C)C4CCC4)c3n2Cc2ccc(C(F)(F)F)cc2)c1` [Example 1.68, 6-{[(1R)-1-cyclobutylethyl]amino}-8-(4-propylpyridin-2-yl)-7-[4-(trifluoromethyl)benzyl]-7H-purine-2-carboxylic acid], it took 5.62 nM to reach half-maximal inhibition (Table 1) (IC50). Consider `COc1ccc(C)nc1-c1nc2nc(C(=O)O)nc(N[C@H](C)C3CCC3)c2n1Cc1ccc(C(F)(F)F)cc1` [Example 1.23, 6-{[(1R)-1-cyclobutylethyl]amino}-8-(3-methoxy-6-methylpyridin-2-yl)-7-[4-(trifluoromethyl)benzyl]-7H-purine-2-carboxylic acid], for which the IC50 (Table 1) was 13.1 nM. `Cc1ccc(Cl)c(-c2nc3nc(C(=O)O)nc(N[C@H](C)C4CCC4)c3n2Cc2ccc(C(F)(F)F)cc2)c1` [Example 1.120, 8-(2-chloro-5-methylphenyl)-6-{[(1R)-1-cyclobutylethyl]amino}-7-[4-(trifluoromethyl)benzyl] - 7H-purine-2-carboxylic acid]: the IC50 (Table 1) was determined as 10.4 nM. As for `C[C@@H](Nc1nc(C(=O)O)nc2nc(-c3cc(C(C)(C)C)ccn3)n(Cc3ccc(C(F)(F)F)c(F)c3)c12)C1CCC1` [Example 1.76, 8-(4-tert-butylpyridin-2-yl)-6-{[(1R)-1-cyclobutylethyl]amino}-7-[3-fluoro-4-(trifluoromethyl)benzyl]-7H-purine-2-carboxylic acid], for the setting “Table 1”, the IC50 turned out to be 8.49 nM. Take `COc1ccc(-c2nc3nc(C(=O)O)nc(N[C@H](C)C4CC4)c3n2Cc2ccc(C(F)(F)F)cc2)cn1` [Example 2.48, 6-{[(1R)-1-cyclopropylethyl]amino}-8-(6-methoxypyridin-3-yl)-7-[4-(trifluoromethyl)benzyl]-7H-purine-2-carboxylic acid]: the IC50 (Table 2) is 680 nM. As to `Cc1ccc(Cn2c(-c3cccc(C)c3)nc3nc(C(=O)O)nc(N[C@H](C)C4CC4)c32)cc1` [Example 5.21, 6-{[(1R)-1-cyclopropylethyl]amino}-7-(4-methylbenzyl)-8-(3-methylphenyl)-7H-purine-2-carboxylic acid], where the note is “Table 5”, the IC50 turned out to be 1200 nM. Turning to `C[C@@H](Nc1nc(C(=O)O)nc2nc(-c3cc(CCC4CC4)ccn3)n(Cc3ccc(C(F)(F)F)cc3)c12)C1CCC1` [Example 1.89, 6-{[(1R)-1-cyclobutylethyl]amino}-8-[4-(2-cyclopropylethyl)pyridin-2-yl]-7-[4-(trifluoromethyl)benzyl]-7H-purine-2-carboxylic acid], the IC50 (Table 1) was determined as 8.67 nM.

Turning to `Cc1cc(-c2nc3nc(C(=O)O)nc(N[C@H](C)C4CC4)c3n2Cc2ccc(Cl)cc2)ccc1F` [Example 2.13, 7-(4-chlorobenzyl)-6-{[(1R)-1-cyclopropylethyl]amino}-8-(4-fluoro-3-methylphenyl)-7H-purine-2-carboxylic acid], the IC50 (Table 2) is 40.4 nM. Take `CNS(=O)(=O)c1ccc(-c2nc3nc(C(=O)O)nc(N[C@H](C)C4CCC4)c3n2Cc2ccc(C(F)(F)F)cc2)cc1` [Example 2.41, 6-{[(1R)-1-cyclobutylethyl]amino}-8-[4-(methylsulfamoyl)phenyl]-7-[4-(trifluoromethyl)benzyl]-7H-purine-2-carboxylic acid]: the IC50 (Table 2) was 44 nM.

`C[C@@H](Nc1nc(C(=O)O)nc2nc(-c3ccc(N4CCOCC4)cc3)n(Cc3ccc(C(F)(F)F)cc3)c12)C1CC1` [Example 1.97, 6-{[(1R)-1-cyclopropylethyl]amino} -8-(4-morpholin-4-ylphenyl)-7-[4-(trifluoromethyl)benzyl]-7H-purine-2-carboxylic acid] showed an IC50 (Table 1) of 1540 nM. For the setting “Table 1”, `Cc1c(-c2nc3nc(C(=O)O)nc(N[C@H](C)C4CCC4)c3n2Cc2ccc(C(F)(F)F)cc2)cnn1C` [Example 1.95, 6-{[(1R)-1-cyclobutylethyl]amino}-8-(1,5-dimethyl-1H-pyrazol-4-yl)-7-[4-(trifluoromethyl)benzyl]-7H-purine-2-carboxylic acid] returned an IC50 of 138 nM. Take `Cc1ccc(OCCCO)c(-c2nc3nc(C(=O)O)nc(N[C@H](C)C4CCC4)c3n2Cc2ccc(Cl)cc2)c1` [Example 4.6, (R)-7-(4-chlorobenzyl)-6-((1-cyclobutylethyl)amino)-8-(2-(3-hydroxypropoxy)-5-methylphenyl)-7H-purine-2-carboxylic acid]: the IC50 (Table 4) stood at 33.7 nM. For the compound `C[C@@H](Nc1nc(C(=O)O)nc2nc(-c3cccc(OC(F)F)c3)n(Cc3ccc(C(F)(F)F)cc3)c12)C1CCC1` [Example 2.67, 6-{[(1R)-1-cyclobutylethyl]amino}-8-[3-(difluoromethoxy)phenyl]-7-[4-(trifluoromethyl)benzyl]-7H-purine-2-carboxylic acid], half-maximal inhibition (Table 2) (IC50) required 41.7 nM. The same measure, in the same setting: next, `C[C@@H](Nc1nc(C(=O)O)nc2nc(-c3ccc(C#N)cc3)n(Cc3ccc(C(F)(F)F)cc3)c12)C1CC1` [Example 2.57, 8-(4-cyanophenyl)-6-{[(1R)-1-cyclopropylethyl]amino}-7-[4-(trifluoromethyl)benzyl]-7H-purine-2-carboxylic acid]: 432 nM.

On to `C[C@@H](Nc1nc(C(=O)O)nc2nc(-c3ccc(C(C)(C)C)cc3)n(Cc3ccc(C(F)(F)F)cc3)c12)C1CCC1` [Example 1.114, 8-(4-tert-butylphenyl)-6-{[(1R)-1-cyclobutylethyl]amino}-7-[4-(trifluoromethyl)benzyl]-7H-purine-2-carboxylic acid], for which 393 nM corresponded to half-maximal inhibition (Table 1) (IC50). On the same count and under the same terms, next, `Cc1ccc(OC(F)(F)F)c(-c2nc3nc(C(=O)O)nc(N[C@H](C)C4CCC4)c3n2Cc2ccc(C(F)(F)F)cc2)c1` [Example 1.84, 6-{[(1R)-1-cyclobutylethyl]amino}-8-[5-methyl-2-(trifluoromethoxy)phenyl]-7-[4-(trifluoromethyl)benzyl]-7H-purine-2-carboxylic acid]: 9.68 nM. Take `CCc1ccc(Cn2c(-c3cccc(C)c3)nc3nc(C(=O)O)nc(N[C@H](C)C4CC4)c32)cc1` [Example 5.20, 6-{[(1R)-1-cyclopropylethyl]amino}-7-(4-ethylbenzyl)-8-(3-methylphenyl)-7H-purine-2-carboxylic acid]: the IC50 (Table 5) was 1200 nM. `C[C@@H](Nc1nc(C(=O)O)nc2nc(-c3ccc(Cl)c(Cl)c3)n(Cc3ccc(C(F)(F)F)cc3)c12)C1CC1` [Example 2.31, 6-{[(1R)-1-cyclopropylethyl]amino}-8-(3,4-dichlorophenyl)-7-[4-(trifluoromethyl)benzyl]-7H-purine-2-carboxylic acid] gave a half-maximal inhibitory concentration (IC50) (Table 2) of 154 nM. Regarding `C[C@@H](Nc1nc(C(=O)O)nc2nc(-c3cccc(F)c3)n(Cc3ccc(C(F)(F)F)cc3)c12)C1CC1` [Example 2.56, 6-{[(1R)-1-cyclopropylethyl]amino}-8-(3-fluorophenyl)-7-[4-(trifluoromethyl)benzyl]-7H-purine-2-carboxylic acid], under “Table 2”, the IC50 was 261 nM.
